Experimental data from patent US12024552B2 (priority 2012, dated 2024).
Marks after values point to notes of the source that are not given here.

Columns and labels:
[1] = test system: Influenza A/Vietnam/1203/2004 (H5N1) virus; parameters: species or system BALB/c mice; conditions: mouse, in vivo
[2] = test system: influenza H1N1 and Streptococcus pneumoniae; parameters: species or system mice; conditions: mouse, in vivo

SMILES | Hazard Ratio (95% CI) [1] | Live/Total [1] | Mean Day of Death ± SD [1] | Median Survival [1] | survival, H5N1 [1] [%] | rescue from death [2]
CCOC(=O)C1=C[C@@H](OC(CC)CC)[C@H](NC(C)=O)[C@@H](N)C1 [Oseltamivir, oseltamivir] | 4.8 (1.6-14.3) | 4/7* | 11.3 ± 0.6 | Undefined | 60 | 
NC(=O)c1ncn([C@@H]2O[C@H](CO)[C@@H](O)[C@H]2O)n1 [Ribavirin, ribavirin] |  |  |  |  |  | failed to rescue animals from death
